# Laboratory results from patent publication US20080221161A1, “HETEROCYCLIC MODULATORS OF TGR5 FOR TREATMENT OF DISEASE” (KALYPSYS, INC., priority 2007, published 2008).
# pEC50: −log10 of the molar value. Where a name gives a salt, the structure may show the parent alone.
# Assays:
# human TGR5 = target: T1, human TGR5 (Homo sapiens, UniProt Q8TDU6); assay: cAMP production assay in HEK293-TGR5 cells; type: cell-based; conditions: HEK293 cells stably expressing human TGR5; 30 minutes stimulation; LANCE cAMP TR-FRET; read-out: cAMP Production in 293-TGR5 Cells EC50
# T1 construct: expressed in transfected cells; host or cells: HEK-293 cells, stably transfected (pcDNA 3.1, Fugene6, geneticin selection)
# T1 sequence (Q8TDU6 1-330): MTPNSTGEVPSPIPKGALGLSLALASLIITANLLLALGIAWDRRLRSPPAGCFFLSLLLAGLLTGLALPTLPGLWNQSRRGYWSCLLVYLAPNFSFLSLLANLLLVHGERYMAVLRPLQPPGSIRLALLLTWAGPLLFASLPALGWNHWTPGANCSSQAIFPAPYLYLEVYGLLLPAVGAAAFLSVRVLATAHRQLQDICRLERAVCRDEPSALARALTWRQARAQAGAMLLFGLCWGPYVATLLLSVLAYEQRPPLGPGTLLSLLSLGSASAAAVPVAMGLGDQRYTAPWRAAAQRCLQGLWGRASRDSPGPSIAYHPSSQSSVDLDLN
# [1] = tested on: mice fed high fat diet (HFD); conditions: mice fed HFD containing 0.5% cholic acid vs HFD alone; cited from earlier work
Compound,pEC50 (human TGR5),other results
"COc1cc2nc(-c3ccsc3)c(CNCc3ccc(C(F)(F)F)cc3)cc2cc1O [Example 122, 7-Methoxy-2-(thiophen-3-yl)-3-((4-(trifluoromethyl)benzylamino)methyl)quinolin-6-ol]",< 5.00,–
"COc1cc2cc(CNCCc3ccc(Br)cc3)c(-c3ccsc3)nc2cc1Cl [Example 123, 2-(4-Bromophenyl)-N-((7-chloro-6-methoxy-2-(thiophen-3-yl)quinolin-3-yl)methyl)ethanamine]",< 5.00,–
"Oc1cc2cc(CNCCc3ccc(Br)cc3)c(-c3ccsc3)nc2cc1Cl [Example 124, 3-((4-Bromophenethylamino)methyl)-7-chloro-2-(thiophen-3-yl)quinolin-6-ol]",< 5.00,–
"COc1cc2cc(CNCCc3ccc(Br)cc3)c(-c3ccsc3)nc2cc1F [Example 125, 2-(4-Bromophenyl)-N-((7-fluoro-6-methoxy-2-(thiophen-3-yl)quinolin-3-yl)methyl)ethanamine]",< 5.00,–
"Oc1cc2cc(CNCCc3ccc(Br)cc3)c(-c3ccsc3)nc2cc1F [Example 126, 3-((4-Bromophenethylamino)methyl)-7-fluoro-2-(thiophen-3-yl)quinolin-6-ol]",> 5.00,–
"O=[N+]([O-])c1ccc2cc(CNCCc3ccc(Br)cc3)c(-c3ccsc3)nc2c1 [Example 127, 2-(4-bromophenyl)-N-((7-nitro-2-(thiophen-3-yl)quinolin-3-yl)methyl)ethanamine]",< 5.00,–
"Nc1ccc2cc(CNCCc3ccc(Br)cc3)c(-c3ccsc3)nc2c1 [Example 128, 3-((4-Bromophenethylamino)methyl)-2-(thiophen-3-yl)quinolin-7-amine]",< 5.00,–
"COc1ccc2c(C)c(CNCCc3ccc(Br)cc3)c(-c3ccsc3)nc2c1 [Example 129, 2-(4-Bromophenyl)-N-((7-methoxy-4-methyl-2-(thiophen-3-yl)quinolin-3-yl)methyl)ethanamine]",< 5.00,–
"COc1ccc2cc(CN[C@H](C)c3ccc(Br)cc3)c(-c3ccsc3)nc2c1 [Example 130, (R)-1-(4-Bromophenyl)-N-((7-methoxy-2-(thiophen-3-yl)quinolin-3-yl)methyl)ethanamine]",> 5.00,–
"COc1ccc2cc(CNC(C)Cc3ccc(Br)cc3)c(-c3ccsc3)nc2c1 (stereo not drawn) [Example 145, 1-(4-Bromophenyl)-N-((7-methoxy-2-(thiophen-3-yl)quinolin-3-yl)methyl)propan-2-amine]",< 5.00,–
C[C@H](CCC(=O)O)[C@H]1CC[C@H]2[C@@H]3[C@H](O)C[C@@H]4C[C@H](O)CC[C@]4(C)[C@H]3C[C@H](O)[C@]12C [cholic acid],–,Food intake [1]: no difference between the two groups; Weight gain [1]: gained less weight than control mice on HFD alone

# Now from value to compound, other results behind:
pEC50 (human TGR5),Compound,other results
> 5.00,"COc1cc2cc(CNCCc3ccc(Br)cc3)c(-c3ccsc3)nc2cc1C [Example 131, 2-(4-Bromophenyl)-N-((6-methoxy-7-methyl-2-(thiophen-3-yl)quinolin-3-yl)methyl)ethanamine]",–
< 5.00,"Cc1cc2nc(-c3ccsc3)c(CNCCc3ccc(Br)cc3)cc2cc1O [Example 132, 3-((4-Bromophenethylamino)methyl)-7-methyl-2-(thiophen-3-yl)quinolin-6-ol]",–
> 5.00,"COc1ccc2cc(CN[C@@H](C)c3ccc(Br)cc3)c(-c3ccsc3)nc2c1 [Example 133, (S)-1-(4-Bromophenyl)-N-((7-methoxy-2-(thiophen-3-yl)quinolin-3-yl)methyl)ethanamine]",–
> 5.00,"C[C@@H](NCc1cc2ccc(O)cc2nc1-c1ccsc1)c1ccc(Br)cc1 [Example 134, (R)-3-((1-(4-Bromophenyl)ethylamino)methyl)-2-(thiophen-3-yl)quinolin-7-ol]",–
> 5.00,"C[C@H](NCc1cc2ccc(O)cc2nc1-c1ccsc1)c1ccc(Br)cc1 [Example 135, (S)-3-((1-(4-Bromophenyl)ethylamino)methyl)-2-(thiophen-3-yl)quinolin-7-ol]",–
> 5.00,"N#Cc1ccc2cc(CNCCc3ccc(Br)cc3)c(-c3ccsc3)nc2c1 [Example 136, 3-((4-Bromophenethylamino)methyl)-2-(thiophen-3-yl)quinoline-7-carbonitrile]",–
< 5.00,"CCOC(=O)c1ccc2cc(CNCCc3ccc(Br)cc3)c(-c3ccsc3)nc2c1 [Example 137, Ethyl 3-((4-bromophenethylamino)methyl)-2-(thiophen-3-yl)quinoline-7-carboxylate]",–
> 5.00,"NC(=O)c1ccc2cc(CNCCc3ccc(Br)cc3)c(-c3ccsc3)nc2c1 [Example 139, 3-((4-Bromophenethylamino)methyl)-2-(thiophen-3-yl)quinoline-7-carboxamide]",–
> 5.00,"CNC(=O)c1ccc2cc(CNCCc3ccc(Br)cc3)c(-c3ccsc3)nc2c1 [Example 140, 3-((4-Bromophenethylamino)methyl)-N-methyl-2-(thiophen-3-yl)quinoline-7-carboxamide]",–
> 5.00,"OCc1ccc2cc(CNCCc3ccc(Br)cc3)c(-c3ccsc3)nc2c1 [Example 141, (3-((4-Bromophenethylamino)methyl)-2-(thiophen-3-yl)quinolin-7-yl)methanol]",–
< 5.00,"CC(=O)Nc1ccc2cc(CNCCc3ccc(Br)cc3)c(-c3ccsc3)nc2c1 [Example 142, N-(3-((4-bromophenethylamino)methyl)-2-(thiophen-3-yl)quinolin-7-yl)acetamide]",–
> 5.00,"COc1cc2nc(-c3ccsc3)c(CNCCc3ccc(Br)cc3)cc2cc1F [Example 146, 2-(4-Bromophenyl)-N-((6-fluoro-7-methoxy-2-(thiophen-3-yl)quinolin-3-yl)methyl)-ethanamine]",–
< 5.00,"Oc1cc2nc(-c3ccsc3)c(CNCCc3ccc(Br)cc3)cc2cc1F [Example 147, 3-((4-Bromophenethylamino)methyl)-6-fluoro-2-(thiophen-3-yl)quinolin-7-ol]",–
< 5.00,"COc1ccc2cc(CNCCc3ccc(Br)cc3)c(OC)nc2c1 [Example 148, 2-(4-Bromophenyl)-N-((2,7-dimethoxyquinolin-3-yl)methyl)ethanamine]",–
< 5.00,"COc1ccc2cc(CNCCc3ccc(Br)cc3)c(O)nc2c1 [Example 149, 3-((4-Bromophenethylamino)methyl)-7-methoxyquinolin-2(1H)-one hydrochloride]",–
